Here are results for 13 compounds from patent US4097596A, “Inhalation therapy for relieving bronchial spasm using quaternary salts of promethazine” (American Home Products Corporation, priority 1976, dated 1978).

The structures appear in SMILES notation. “And” between values parts separate entries of the source, which are not always exact repeats. Equal entries are not always repeated. Structures can show the parent of a compound that is named as a salt. Where two headings read alike, the source gives them in different places.

The subject of one test is smooth muscle. Particulars: cited from earlier work.
In the next test the test system is histamine. The experiment in a line: Inhibition of histamine-induced bronchoconstriction by aerosol, anesthetized guinea pigs. In kind it is in vivo. The procedure: (§1) Anesthetized (Pentobarbitol-urethane) guinea pigs were artificially respired at a constant positive air pressure (Starling miniature pump) and changes in tidal air during inspiration were recorded, according to the method of Rosenthale et al., Int. Arch. Pharmacol., 172, 91 (1968). The bronchoconstrictor agents acetylcholine and histamine were administered intravenously at doses of 1 to 30 μg/kg. depending on each animal's sensitivity to these compounds, and control responses to acetylcholine and histamine were thus established. Bronchoconstrictor agents raise the resistance of the lungs to inflation thereby decreasing the tidal air flow. A solution of the test compound was then administered by aerosol, in physiological saline or distilled water, and the animals were then challenged again with acetylcholine or histamine and the degree of inhibition of bronchoconstriction by the test compound was thus determined.

Another test relates to acetylcholine. The experiment in a line: Inhibition of acetylcholine-induced bronchoconstriction by aerosol, anesthetized guinea pigs. In kind it is in vivo. The procedure:
as §1

For test [1] the following is noted: cited from earlier work.
The subject of test [2] is cholinergic-induced bronchoconstriction. Put plainly: Effect of drugs on cholinergic-induced bronchoconstriction in the cat (aerosol). The test is classed as in vivo. Particulars: as cation, mean ± S.E. The procedure:
Cats of either sex were anesthetized and respiration was arrested by the administration of an intravenous infusion of 1 mg/ml/min of succinylcholine chloride. The animals were artificially respired with a Harvard pump. A neostigmine methylsulfate solution (0.1 mg/ml) was infused intravenously at a rate of 1 ml/min until maximal or complete bronchoconstriction occurred, but the experiment was not begun until a stable state was attained. The respiratory flow was measured with a Fleisch pneumotachograph and a differential pressure transducer. Transpulmonary pressure was measured with a differential pressure transducer bridged between the trachea and the intrapleural space. Pulmonary airway resistance and compliance was measured by a modification of the Mead & Whittenberger electronic subtraction method using the Hewlett-Packard respiratory pre-amplifier or the isovolumetric method using the Buxco Pulmonary mechanics computer [Rosenthale et al., J. Pharmacol. Exp. Ther., 178, 541, (1971)].
Drugs were administered as cation as an aerosol by means of a Monaghan ultrasonic nebulizer. The dosage was varied by adjusting the concentration of the solution. Activity was measured by the ability of the drug to reverse the increased airway resistance and decreased compliance characteristic of cholinergic stimulation induced by succinylcholine and neostigmine.

Where [3] appears, read: 15.0 μg as cation, distilled water.
The mark [4] stands for this setting: 0.15 μg as cation, distilled water.
Where [5] appears, read: 1.5 μg as cation, distilled water.
Where [6] appears, read: 1.5 μg as cation, physiological saline.
Setting [7] is: 15.0 μg as cation, physiological saline.
Where [8] appears, read: 0.1 μg, listed as Promethazine methyl iodide.
[9] abbreviates: 1.0 μg, listed as Promethazine methyl iodide.
Setting [10] is: 10.0 μg, listed as Promethazine methyl iodide.
[11] abbreviates: 100.0 μg, listed as Promethazine methyl iodide.
Where [12] appears, read: 0.1 μg, listed as Promethazine methyl chloride.
Setting [13] is: 1.0 μg, listed as Promethazine methyl chloride.
Where [14] appears, read: 10.0 μg, listed as Promethazine methyl chloride.
[15] abbreviates: 100.0 μg, listed as Promethazine methyl chloride.

For the compound `CNC[C@H](O)c1ccc(O)c(O)c1` [epinephrine], the smooth muscle relaxation entry in the test on smooth muscle is “smooth muscle relaxant”.
For `CCCC[N+](C)(C)C(C)CN1c2ccccc2Sc2ccccc21` (racemic) [n-C4 H9 / I, dl-N-n-Butyl,N,N,α-Trimethyl-10H-Phenothiazine-10-Ethanaminium Iodide], in the test with histamine (setting [3]), the “Mean % Inhibition (±S.E.) vs. Histamine” value was 66.33 (2.96) %. In addition, the “Mean % Inhibition (±S.E.) vs. Acetylcholine” value in the test with acetylcholine (setting [4]) is reported as 0%; with acetylcholine (setting [5]), 39.25 (2.53) %; in the test with acetylcholine (setting [3]) it was 52.0 (6.35) %.
Take `Cn1c(=O)c2[nH]cnc2n(C)c1=O` [aminophylline]: the bronchodilator activity entry in test [1] (aerosol) was “inactive as a bronchodilator aerosol”. The “bronchial smooth muscle relaxation” value with smooth muscle (in vitro or by injection in vivo) is on record as “can relax bronchial smooth muscle in vitro or by injection in vivo”.
With `CC(CN1c2ccccc2Sc2ccccc21)[N+](C)(C)C` (racemic) [CH3 / I, dl-trimethyl[1-methyl-2-(phenothiazin-10-yl)ethyl]ammonium iodide], the “Mean % Inhibition (±S.E.) vs. Histamine” value is 15.33 (6.96) % in the test with histamine (0.15 μg as cation, physiological saline); 49.0 (11.14) % in the test on histamine (setting [6]); 98.0 (1.0) % in the test with histamine (setting [3]); 97.5% and 98.66 (1.33) % in the test on histamine (setting [7]). The “Pulmonary Compliance % Protection” value in test [2] (setting [8]) was 5.8±3.6%; in test [2] (setting [9]), 3.7± .52%; in test [2] (setting [10]), 15.5±6.0%; in test [2] (setting [11]), 26.4±4.1%. Further, the “Pulmonary Resistance % Protection” value in test [2] (setting [8]) is 14.3±1.1%; in test [2] (setting [9]), 39.4±2.1%; in test [2] (setting [10]), 48.5±3.3%; in test [2] (setting [11]), 78.1±4.4%. Besides, the “Duration 50% (time to return to 50% of control constricted state)” value was 6.7 ± 3.2 min in test [2] (0.1 μg, methyl chloride done in 3 cats, listed as Promethazine methyl iodide); 11.3 ± 2.0 min in test [2] (setting [9]); 21.2 ± 6.8 min in test [2] (setting [10]); 46.1 ± 9.7 min in test [2] (setting [11]). Besides, the “Mean % Inhibition (±S.E.) vs. Acetylcholine” value is 20.0 (13.38) % with acetylcholine (setting [4]); 47.0 (7.59) % in the test on acetylcholine (setting [5]); 62.38 (4.67) % and 62.75 (11.89) % in the test on acetylcholine (setting [6]); 98.66 (1.33) % in the test with acetylcholine (setting [3]); 99.0 (1.0) % and 99.3 (0.67) % in the test on acetylcholine (setting [7]).
With `CC(CN1c2ccccc2Sc2ccccc21)[N+](C)(C)C` (racemic) [CH3 / NO3, dl-Trimethyl[1-Methyl-2-(Phenothiazin-10-yl)Ethyl]Ammonium Nitrate], the “Mean % Inhibition (±S.E.) vs. Acetylcholine” value with acetylcholine (setting [4]) is 12.0 (6.26) %; in the test with acetylcholine (setting [5]), 43.5 (10.33) %; in the test with acetylcholine (setting [3]), 100 (0) %.
As for `CC[N+](C)(C)C(C)CN1c2ccccc2Sc2ccccc21` (racemic) [C2 H 5 / I, dl-N-Ethyl-N,N,α-Trimethyl-10H-Phenothiazine-10-Ethanaminium Iodide], the “Mean % Inhibition (±S.E.) vs. Histamine” value in the test on histamine (setting [3]) is 78.67 (8.74) %. The “Mean % Inhibition (±S.E.) vs. Acetylcholine” value is 20.0 (7.70) % in the test with acetylcholine (setting [4]), 62.75 (10.63) % in the test on acetylcholine (setting [5]) and 98.66 (1.33) % with acetylcholine (setting [3]).
Consider `CC(CN1c2ccccc2Sc2ccccc21)[N+](C)(C)C` (racemic) [CH3 / Br, dl-Trimethyl[1-Methyl-2-(Phenothiazin-10-yl)Ethyl]Ammonium Bromide], for which the “Mean % Inhibition (±S.E.) vs. Acetylcholine” value was 0% in the test with acetylcholine (setting [4]), 38.75 (9.26) % in the test with acetylcholine (setting [5]) and 99.0 (1.0) % in the test with acetylcholine (setting [3]).
Regarding `CC(CN1c2ccccc2Sc2ccccc21)[N+](C)(C)C` (stereo not drawn) [CH"3 / I, l-Trimethyl[1-Methyl-2-(Phenothiazine-10-yl)Ethyl]Ammonium Iodide], the “Mean % Inhibition (±S.E.) vs. Histamine” value with histamine (setting [7]) is 95 (4.66) %. Moreover, the “Mean % Inhibition (±S.E.) vs. Acetylcholine” value in the test with acetylcholine (setting [7]) is 81%.
Turning to `CC(CN1c2ccccc2Sc2ccccc21)[N+](C)(C)C` (racemic) [CH3 / Cl, dl-Trimethyl[1-Methyl-2-(Phenothiazin-10-yl)Ethyl]Ammonium Chloride], in the test with histamine (setting [3]), the “Mean % Inhibition (±S.E.) vs. Histamine” value is on record as 98.2 (1.8) %. Also, the “Pulmonary Compliance % Protection” value is 6.8±4.1% in test [2] (setting [12]), 7.8±4.1% in test [2] (setting [13]), 71.4±51.1% in test [2] (setting [14]) and 60.8±25.7% in test [2] (setting [15]). In addition, the “Pulmonary Resistance % Protection” value in test [2] (setting [12]) is listed as 8.8±7.7%; in test [2] (setting [13]) it was 17.2±2.8%; in test [2] (setting [14]) it was 50.0±4.6%; in test [2] (setting [15]), 72.8±2.1%. Also, the “Duration 50% (time to return to 50% of control constricted state)” value in test [2] (0.1 μg, methyl chloride done in 3 cats, listed as Promethazine methyl chloride) is 2.7 ± 1.5 min; in test [2] (setting [13]), more than 10 min; in test [2] (setting [14]) it was 21.0 ± 4.0 min; in test [2] (setting [15]), more than 60 min. The “Mean % Inhibition (±S.E.) vs. Acetylcholine” value is 24.25 (10.21) % and 26.67 (6.77) % with acetylcholine (setting [5]); 86.3 (10.37) % and 100 (0) % with acetylcholine (setting [3]).
In the case of `CC(CN1c2ccccc2Sc2ccccc21)[N+](C)(C)C` (stereo not drawn) [CH'3 / I, d-trimethyl[1-methyl-2-(phenothiazin-10-yl)ethyl]ammonium iodide], the “Mean % Inhibition (±S.E.) vs. Histamine” value in the test on histamine (setting [7]) is reported as 82%. Also, the “Mean % Inhibition (±S.E.) vs. Acetylcholine” value in the test with acetylcholine (setting [7]) is on record as 97%.
`CCC[N+](C)(C)C(C)CN1c2ccccc2Sc2ccccc21` (racemic) [n-C3 H7 / I, dl-N,N,α-Trimethyl-N-n-Propyl-10H-Phenothiazine-10-Ethanaminium Iodide]: in the test with histamine (setting [3]), the “Mean % Inhibition (±S.E.) vs. Histamine” value is 68.0 (8.14) %. Also, the “Mean % Inhibition (±S.E.) vs. Acetylcholine” value with acetylcholine (setting [4]) is on record as 5.5 (3.20) %; in the test with acetylcholine (setting [5]), 43.75 (6.51) %; with acetylcholine (setting [3]) it was 84.0 (6.56) %.
As for `CN[C@@H](C)[C@H](O)c1ccccc1` [ephedrine], the results for the bronchodilator activity entry in test [1] (aerosol) and in test [1] (oral) were “not by aerosol” and “orally active bronchodilator”, respectively. Besides, in the test on smooth muscle, the smooth muscle relaxation entry is on record as “smooth muscle relaxant”.
With `CC(CN1c2ccccc2Sc2ccccc21)[N+](C)(C)C` (racemic) [CH3 / CH3 SO4, dl-Trimethyl[1-Methyl-2-(Phenothiazine-10-yl)Ethyl]Ammonium Methyl Sulfate], the “Mean % Inhibition (±S.E.) vs. Histamine” value with histamine (setting [7]) is 98%. In the test with acetylcholine (setting [7]), the “Mean % Inhibition (±S.E.) vs. Acetylcholine” value stood at 86%.
